The source of these data is US20180318200A1, “MOUTHWASH PRODUCTS AND METHODS” (COLGATE-PALMOLIVE COMPANY, priority 2015, published 2018).

The nature of experiment [1]: Nanoindentation (nanohardness and Young's modulus) of acid-etched enamel blocks. Also on record: species or system bovine. The following applies: hydrolyzed wheat protein 0.5 weight %, fluoride 500 ppm; three cycles of 30 minutes treatment + 22 to 24 hours AS. On the procedure: Enamel blocks are prepared as described in Example 1. Acid-etching is achieved by placing the enamel blocks in 1% citric acid solution (pH 3.8) for 15 minutes. The nanohardness and Young's modulus at 500 nm depth are measured prior to and after etching. Etched enamel blocks are incubated with a solution of hydrolyzed wheat protein (GLUADIN W20), at a concentration of 0.5 weight %, for 30 minutes (2 ml solution/block), followed by an incubation with AS solution as described in Example 1, for 22 to 24 hours. The hydrolyzed wheat protein and AS incubation steps are repeated two additional times, after which the enamel blocks are rinsed with DI water and air-dried. The nanohardness and Young's modulus of the treated enamel blocks are measured at 500 nm depth to assess the enamel repair effects of the hydrolyzed wheat protein. A solution of 500 ppm fluoride is used as a positive control for the experiment. The results are illustrated in Tables 2 and 3.

Experiment [2] in a line: Microhardness (Knoop) remineralization assay on etched enamel blocks. Details: species or system bovine. The following applies: hydrolysate filtrate with CPC 0.1% and fluoride (NaF) as stated in the label. As to the method:
Enamel blocks are prepared as described in Example 1. […] Blocks with a Knoop hardness (KH) of at least 300 are selected. The blocks are etched by immersing in 30% phosphoric acid for 15 seconds. The KH on the left and right sides of the blocks are measured. Subsequently, the right side of the blocks are covered with tape prior to treating the blocks with 20 mg/ml solution of hydrolyzed wheat protein (Gluadin W20 from BASF) or hydrolyzed rice protein (GLUADIN R from BASF), each neutralized as described in example 1, for two terms of 30 minutes. (The tape on the right hand side of the blocks prevents exposure of this side to the protein solution and serves as an internal control). The blocks are washed twice with DI water @ 5 minutes, 500 PRM between the two treatments and after the second treatment. Subsequently, the tape is removed and the blocks are incubated in AS solution (0.2 mM MgCl2, 1 mM CaCl2.H2O, 20 mM HEPES buffer, 4 mM KH2PO4, 16 mM KCl, 4.5 mM NH4Cl, 300 ppm NaF, 0.05 wt. % NaN3, at pH 7 (adjusted with 1M NaOH)) for 7 days. After rinsing the enamel blocks with DI water and air-drying the rinsed blocks, microhardness is measured again. Surface microhardness regain (SMHL, Remin %) as a percent is calculated as […]

The conditions of experiment [3]: surface microhardness loss, 4 day cycling, four 10 minute treatments per day.
Experimental: The selected enamel blocks are then the enamel blocks are pre-treated and subjected to 4 day cycling as described below, using DI water (negative control), 500 ppm F (positive control) and 0.2% wheat hydrolysate (Gluadin W20)+500 ppm F (test material) prepared as described in the previous example. The microhardness of the enamel blocks is measured again as final (MHfinal).
Each enamel block is sanitized in ethanol twice then washed in sterile DI water three times. Then each enamel block is pre-incubated in saliva supernatant at 4° C. overnight to form pellicle on the enamel surface.
Day Two to Five—Dentifrice treatment, demineralization and remineralization: Unstimulated whole saliva is collected from donors, who refrain from eating and oral hygiene in the morning. The saliva is pooled and centrifuged at 8000 rpm for 10 minutes. […] The sediment is washed once using sterile DI water and centrifuged at 8000 rpm for 10 minutes. The water supernatant is removed. The washed sediment is then diluted in the salivary supernatant TSB mixture to an OD (610 nm)=0.5. […]
Surface microhardness loss (SMHL, Demin %) as a percent was calculated as (1−(Microhardnessfinal/Microhardnesssound))*100.
The conditions of experiment [4]: evaluation with weight adjustment; two 30 minute ex vivo treatments, 7 days in situ in retainer.
Experimental: A treatment phase is completed ex vivo. Initial microhardness (MH) measurements are taken on sound, bovine enamel blocks (MHBaseline). The blocks are then etched with 30% phosphoric acid until there was a 40% change in the microhardness reading from Baseline. The microhardness is recorded as etched (Equation 1, MHEtched). Each etched enamel block is then immersed in a 2 ml solution of pre-treated 0.2% wheat hydrolysate (Gluadin W20)+500 ppm F prepared as described above, or a 2 ml solution of 500 ppm F, for 30 minutes. After 30 minutes, the blocks are washed twice with DI water at 500 RPM for 5 minutes, and then dried with a paper towel. This treatment cycle is repeated. The blocks are then secured within the designated location on a retainer for placement in the oral cavity of a subject. Six enamel blocks are placed in each retainer. Pre-punched holes on the retainer allow saliva fluid to contact etched enamel and to provide minerals for remineralization. […] The treated and control enamel blocks are randomized on the left or right side of the retainer. The retainers are then stored in a refrigerator until Day 1 of the study.
Twenty-six subjects are included in this randomized, blinded study. […] After 7 days, the enamel blocks are taken out of the appliance to take the final microhardness measurements (MHRemineralized) Demineralization and remineralization are calculated as follows: […]

The structures appear in SMILES notation. Like-named read-outs stand apart in the source and are kept apart here.

Take `F` [Fluoride, NaF]: the “Nanohardness Repair at 500 nm depth (%)” value in experiment [1] was 31.12%. Also, the “Young's Modulus Repair at 500 nm depth (%)” value in experiment [1] is listed as 48.50%. Further, the values for the Remineralization % in experiment [2] (listed as Buffer + 250 ppm fluoride) and in experiment [2] (listed as Buffer + 500 ppm fluoride) were 11.73% and 15.87%, respectively. For the same molecule, the Demineralization percentage came to 8.36% in experiment [3] (0.2% sucrose) and 19.99% in experiment [3] (0.4% sucrose). Besides, in experiment [4], the “% Remin” value was 27.6%.
